Reference: patent US7357913B2, “Methods for detecting, prognosing, or monitoring a disorder by comparing relative flux rates of two or more biological molecules in vivo” (The Regents of the University of California, priority 2003, dated 2008)
“Also recorded” adds a separate entry of the source. Values belong to the molecule of their own block, whether it stands above or below them.

Legend:
[1] = test system: liver collagen; experiment: Liver collagen synthesis (2H into hydroxyproline) after CCl4; format: in vivo, mouse
Procedure: Liver collagen synthesis was measured concurrently (i.e., simultaneously) with de novo DNA synthesis in the same CCl4-treated SJV mice. Collagen was purified from 10 mg of fresh total liver homogenate as follows: using a Polytron homogenizer, collagen was isolated from soft tissue by homogenizing in 0.5 mL 100 mM NaOH. Under these conditions, collagen remains insoluble while most other proteins are readily dissolved. After centrifugation at 7,000 ×g for 10 minutes at 4° C., the supernatant was discarded. The pellet was washed briefly with 2 mL H2O and solubilized in reducing Laemmli sample buffer (Bio-Rad, Hercules, Calif.) after boiling for 3 minutes. The dissolved material was size-fractionated by SDS-PAGE. […]
Acetone precipitated total liver protein and PVDF-bound collagen were hydrolyzed by treating with 6 N HCl, 16 hours at 110° C. […] Hydroxyproline was analyzed on a DB225 GC column, starting temp 100° C. increasing 10° C./min to 220° C. with selected ion monitoring of m/z 352,353.
Hydroxyproline is a molecule of interest and is measured as OH-proline, the molecule being essentially unique to collagen. Because of this fact, total liver protein hydrolysate can be derivatized and the ^2H enrichment of hydroxyproline determined by GC/MS as described, supra. […]

[2] = test system: total liver cell; experiment: Total liver cell proliferation (DNA synthesis) after CCl4; format: in vivo, mouse
Procedure: SVJ mice were injected 2× weekly with 1.0 ml/kg or 0.25 mL/kg of CCl4 or vehicle for up to 4 weeks Cell proliferation was measured at 2, 7, 14, 21 and 28 days of ^2H2O administration and CCl4 treatment using the methods of the present invention as described, supra.

[3] = test system: colonocytes; experiment: Colonocyte proliferation (de novo DNA synthesis, 2H2O labeling), gemcitabine study; format: in vivo, mouse; conditions: male balb/C nu/nu mice with SW1573; for colon cell (colonocyte) proliferation: increasing doses every other day, 5 days
Procedure: (§1) Male balb/C nu/nu mice were implanted subcutaneously with non-small cell lung carcinoma cells (SW1573) cells in matrigel. Mice were labeled with 2H2O and treated with increasing doses of gemcitabine (Gem), administered every other day (as shown in FIG. 9). After 5 days, tumor, colon and bone marrow were removed using techniques well known in the art, and as described, supra. Cell proliferation was measured as described, supra. […] De novo DNA synthesis from all three cell types was measured concurrently using the methods of the present invention. Briefly, heavy water (^2H2O) is administered to living organisms (8% ^2H2O in drinking water). DNA is isolated, hydrolyzed to free dNs, and deuterium incorporation into the deoxyribose (dR) moiety of purine and pyrimidine dNs is measured by gas chromatography/mass spectrometry (GC/MS) as described, supra.

[4] = test system: bone marrow cells; experiment: Bone marrow cell proliferation (de novo DNA synthesis, 2H2O labeling), gemcitabine study; format: in vivo, mouse; conditions: male balb/C nu/nu mice with SW1573, increasing doses every other day, 5 days
Procedure: as §1

[5] = test system: non-small cell lung carcinoma cells (SW1573); experiment: Tumor cell proliferation (de novo DNA synthesis, 2H2O labeling) in SW1573 xenograft mice, gemcitabine; format: in vivo, human; conditions: male balb/C nu/nu mice, SW1573 s.c. in matrigel, increasing doses every other day, 5 days
Procedure: as §1

[6] = test system: EMT7 mouse mammary carcinoma cells; experiment: Tumor cell proliferation in EMT7 tumor-bearing mice, Gem and HU; format: in vivo; conditions: female balb/C nu/nu mice, EMT7 tumors; Gem 125 mg/kg every other day, HU 500 mg/kg daily; 5 days
Procedure: Female balb/C nu/nu mice were implanted subcutaneously with approximately 106 EMT7 mouse mammary carcinoma cells in matrigel. Tumors were allowed to reach ca.1500 mm^3 in size. Mice were labeled with ^2H2O and treated with either 125mg/kg gemzar (gemcitabine or Gem) or 500 mg/kg hydroxyurea (HU). Gem was administered every other day; HU daily; and control saline daily. At the end of 5 days tumors were removed and cell proliferation was measured as described, supra.

[7] = Body water 2H2O enrichment in rats; format: in vivo, rat; conditions: rats maintained on 4% 2H2O in drinking water after i.p. priming bolus
Procedure: ^2H2O labeling protocols in rodents consisted of an initial intraperitoneal priming bolus to 2.0-2.5% body water enrichment. The priming dose of ^2H2O (100%) was given to the rats (e.g., for a 225 g rat, 2% of 135 ml, or 2.7 ml, given in divided doses 1 hour apart) based on estimated 60% body weight as water, followed by administration of 4% ^2H2O in the drinking water. The 4% enrichment of ^2H2O in drinking water was chosen as a convenient dose that produces sufficient enrichments in biosynthetic products of interest and has no known toxicities. ^2H2O (70% and 100%) was purchased commercially from Cambridge Isotopes (Andover, Mass.). Drinking was ad-libitum. Rats were sacrificed by CO2 asphyxiation.
Body water ^2H2O enrichments were measured serially. The steady state body ^2H2O enrichments attained in rats maintained on 4% ^2H2O in drinking water were approximately 3.0% and were stable over time in individual animals.

[8] = human, in vivo, po
Procedure: (§2) The ^2H2O was administered orally. The initial priming dose was carried out in the General Clinical Research Center (GCRC) of SF General Hospital. Subjects received a total of 350-400 mL of ^2H2O in the GCRC, given as divided doses over the course of 18-21 hours (70 mL of 70% ^2H2O, given every 3-4 hours), to achieve about 1.0% enrichment in the body water pool. The ^2H2O was purchased from-Isotec, Inc. (Miamisburgh, Ohio) and dispensed in sterile containers. Subjects then took 50 mL of 70% ^2H2O three times a day for 5 days, then 35-50 mL twice-a-day for the remainder of the 8-10 week labeling protocol. This protocol achieves near-plateau body ^2H2O enrichments (1.5-2.0%, see below) within 5-7 days in most subjects and was well-tolerated. Subjects received the ^2H2O as individual aliquots (35-50 mL of 70% ^2H2O) in plastic vials, which were stored in the refrigerator.
^2H2O enrichments in body water were measured from plasma or urine. A 15-20 μL sample was reacted in an evacuated GC vial with calcium carbide to produce acetylene. The acetylene gas was then transferred with a syringe and injected into an evacuated GC vial containing 10% bromine in carbon tetrachloride and incubated at room temperature for 2 hours to produce tetrabromoethane. […] The tetrabromoethane, containing hydrogen atoms from body H2O, was then analyzed by GC/MS.

[9] = Food intake and body weight under 2H2O treatment in mice; format: in vivo, mouse; conditions: ca. 2% body water enrichment then 4% 2H2O drinking water, 21 days
Procedure: Mice were injected with ^2H2O (deuterated water) at a dose to achieve approximately 2% enrichment in the body water pool. The normal drinking water was then replaced with water enriched to 4% ^2H2O. ^2H2O treatment had no impact on food intake or body weight. Twenty-one days following the start of ^2H2O administration, mice were fasted for four hours, anesthetized with isoflurane and exsanguinated via heart puncture. When possible, urine was collected at the same time.

[10] = Tolerability of oral 2H2O labeling protocol in human subjects; format: in vivo; conditions: 8-10 week labeling protocol
Procedure: as §2

[11] = test system: adipose tissue; experiment: Adipose tissue dynamics (TG synthesis, de novo lipogenesis, adipocyte proliferation) in leptin treated ob/ob mice; format: in vivo, mouse
Procedure: Four week old, female, C57/b16j mice (Jackson Labs Bar Harbor, […].) were divided into four groups: C57/b16j^+/? controls (con), ad libitum fed C57/b16j^lep-/lep-(ob/ob), leptin treated ob/ob (ob-lep) and food restricted ob/ob (ob-r). All mice were housed individually in hanging wire cages and given free access to water. The light cycle was on from noon to midnight and mean temperature was 73° F. Diets were from a purified formula with 1 g “dustless” pellets used for the ad lib fed animals and 45 mg for the food restricted ob/ob mice (Bio Serv, Frenchtown, N.J.). Mice were given 3 days to acclimate to the environment, during which time some weight loss was observed. After the acclimation period, food restriction or leptin treatment was begun and food intake and body weights were measured periodically. […]
The percent of TG newly synthesized during the labeling period was calculated based on the precursor-product relationship, as described supra, using body water enrichment to estimate the maximal or asymptotic enrichment in TG-glycerol. The relationship between body water and the maximal TG-glycerol enrichment has been determined through combinatorial analysis (mass isotopomer distribution analysis MIDA) and by measurement of 100% replaced TG pools after long-term ^2H2O labeling. […] The fraction of TG which is newly synthesized is then calculated as: Fractional synthesis (f)=EM1/A1^∞. […]

Molecule: ClC(Cl)(Cl)Cl [CCl4, carbon tetrachloride]
liver collagen synthesis relative to vehicle control, high dose ([1]; high dose of CCl4 (1.0 ml/kg 2x weekly)): significant collagen synthesis occurred only at the highest dose; also recorded: increased
liver collagen synthesis relative to vehicle control, low dose ([1]; low dose of CCl4 (0.25 mL/kg 2x weekly)): no effect
new liver cells present ([2]; after 4 weeks of repeated CCl4 dosing): ~100%
total liver cell proliferation relative to vehicle control ([2]; mice injected 2x weekly, both doses (1.0 ml/kg and 0.25 mL/kg), up to 4 weeks): significantly increased; also recorded: significant cell proliferation occurred at both doses

Molecule: Nc1ccn([C@@H]2O[C@H](CO)[C@@H](O)C2(F)F)c(=O)n1 [Gem, gemcitabine]
colon cell (colonocyte) proliferation [3]: relatively little effect
colon cell (colonocyte) proliferation ([3]; listed as gemcitabine): little inhibition
colonocyte proliferation at the lower experimental doses ([3]; lower experimental doses): may have a stimulatory effect
bone marrow cell proliferation [4]: inhibits
bone marrow cell proliferation ([4]; listed as gemcitabine): inhibited in tumor and bone marrow cells in a dose-response manner
tumor cell proliferation [5]: inhibits
tumor cell proliferation ([5]; listed as gemcitabine): inhibited in tumor and bone marrow cells in a dose-response manner
tumor cell proliferation relative to saline control [6]: caused reductions; also recorded: decreased

Molecule: NC(=O)NO [HU, hydroxyurea]
tumor cell proliferation relative to saline control [6]: caused reductions; also recorded: decreased

steady state body 2H2O enrichment [7]: approximately 3.0%
near-plateau body 2H2O enrichment [8]: 1.5-2.0%
time to near-plateau body 2H2O enrichment [8]: 5 to 7 days
Molecule: [2H]O[2H] [^2H2O]
impact on food intake or body weight [9]: no impact
tolerability of 2H2O protocol [10]: well-tolerated

B1: leptin: murine leptin (Amgen) infused subcutaneously by osmotic pump (protein, UniProt P41160 22-167, looked up)
Leptin: VPIQKVQDDTKTLIKTIVTRINDISHTQSVSAKQRVTGLDFIPGLHPILSLSKMDQTLAVYQQVLTSLPSQNVLQIANDLENLRDLLHLLAFSKSCSLPQTSGLQKPESLDGVLEASLYSTEVVALSRLQGSLQDILQQLDVSPEC
TG retained (body fat balance) ([11]; leptin treated ob/ob mice): body fat was lost
effect on de novo lipogenesis, adipogenesis and triglyceride synthesis in adipose tissue ([11]; ob/ob mice, murine leptin 2 μg/day s.c. osmotic pump, 21 days 2H2O): influenced all three pathways similarly
